54 compounds from patent US8841456B2, “1,5-naphthyridine derivative or salt thereof” (FUJIFILM Corporation, priority 2011, dated 2014) can be followed below.

The target in assay [1] is T1, glutathione S-transferase (GST)-fusion human ERK2 protein (Homo sapiens, UniProt P28482).
T1 construct: purchased Carna Biosciences, Inc; host or cells: E. coli expression system
Briefly: ERK2 enzyme assay (LabChip mobility shift). The class given is biochemical. The following applies: 2 nM ERK2, 4.25 μM FL-Peptide 8, 43 μM ATP. The method, boiled down: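 GST-tagged human ERK2 from E. coli, at 2 nM, was preincubated 15 min at room temperature with compound in Hepes pH 7.5 with MgCl2, DTT and Brij35. The reaction ran 120 min at 25 °C with 4.25 μM FL-Peptide 8 and 43 μM ATP (final). Phosphopeptide fraction was measured by mobility-shift separation to give IC50.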

Assay [2] has as its target T2, human PI3Kα protein (Homo sapiens, UniProt P42336).
T2 construct: purchased Carna Biosciences, Inc; host or cells: Baculovirus expression system
Briefly: PI3Kα enzyme assay (ADP-Glo kinase assay). The class given is biochemical. The following applies: 3 nM PI3Kα, 50 μM PIP2, 100 μM ATP. The method, boiled down:
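Baculovirus-expressed biotinylated human PI3Kα (3 nM) preincubated 15 min with compound in Tris pH 7.5, MgCl2, BSA, then reacted 60 min at 25 °C with 50 μM PIP2 and 100 μM ATP. ADP quantified by ADP-Glo luminescence; IC50 calculated.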

[3] abbreviates: IC50 class, read-out: ERK2 Inhibitory Activity.
[4] abbreviates: IC50 class, read-out: PI3Kα Inhibitory Activity.

Where two headings read alike, the source gives them in different places.

T1 sequence (P28482 whole entry, the tested form may be a part): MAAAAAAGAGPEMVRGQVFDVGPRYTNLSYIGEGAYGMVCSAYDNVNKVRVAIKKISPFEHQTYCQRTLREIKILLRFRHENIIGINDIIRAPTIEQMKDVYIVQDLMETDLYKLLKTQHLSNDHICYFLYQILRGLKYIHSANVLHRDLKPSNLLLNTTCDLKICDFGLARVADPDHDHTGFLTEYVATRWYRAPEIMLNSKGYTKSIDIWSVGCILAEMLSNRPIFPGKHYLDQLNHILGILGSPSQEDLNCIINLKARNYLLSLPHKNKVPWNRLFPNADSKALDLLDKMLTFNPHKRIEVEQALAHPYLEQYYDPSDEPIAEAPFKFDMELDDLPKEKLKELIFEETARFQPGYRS
T2 sequence (P42336 whole entry): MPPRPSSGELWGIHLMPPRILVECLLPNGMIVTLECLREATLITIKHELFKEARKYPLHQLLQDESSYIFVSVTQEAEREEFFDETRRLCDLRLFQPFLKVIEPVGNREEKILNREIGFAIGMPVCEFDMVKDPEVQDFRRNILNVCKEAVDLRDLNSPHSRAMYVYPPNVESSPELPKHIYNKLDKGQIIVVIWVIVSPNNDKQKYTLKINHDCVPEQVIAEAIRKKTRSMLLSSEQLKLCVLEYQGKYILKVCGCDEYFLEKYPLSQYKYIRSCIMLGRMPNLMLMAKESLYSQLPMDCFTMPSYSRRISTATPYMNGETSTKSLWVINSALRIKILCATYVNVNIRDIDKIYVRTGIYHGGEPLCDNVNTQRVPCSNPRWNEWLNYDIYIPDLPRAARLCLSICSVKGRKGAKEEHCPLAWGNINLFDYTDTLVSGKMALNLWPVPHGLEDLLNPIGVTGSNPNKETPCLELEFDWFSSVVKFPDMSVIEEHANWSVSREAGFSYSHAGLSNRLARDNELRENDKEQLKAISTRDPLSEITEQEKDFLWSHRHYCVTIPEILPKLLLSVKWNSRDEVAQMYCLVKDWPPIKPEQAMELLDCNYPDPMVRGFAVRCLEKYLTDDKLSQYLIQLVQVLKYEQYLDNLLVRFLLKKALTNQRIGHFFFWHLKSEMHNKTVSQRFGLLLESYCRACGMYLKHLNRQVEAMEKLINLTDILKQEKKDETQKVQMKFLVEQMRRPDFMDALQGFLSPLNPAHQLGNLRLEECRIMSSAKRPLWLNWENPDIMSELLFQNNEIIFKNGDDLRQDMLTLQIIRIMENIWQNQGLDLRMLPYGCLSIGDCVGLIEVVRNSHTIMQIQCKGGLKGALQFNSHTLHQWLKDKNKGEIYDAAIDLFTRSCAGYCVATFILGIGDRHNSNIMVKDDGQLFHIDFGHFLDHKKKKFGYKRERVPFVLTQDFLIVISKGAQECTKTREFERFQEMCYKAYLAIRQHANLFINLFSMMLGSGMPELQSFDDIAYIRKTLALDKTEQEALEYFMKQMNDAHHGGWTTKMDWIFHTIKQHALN
T2 sequence (P27986 whole entry partner): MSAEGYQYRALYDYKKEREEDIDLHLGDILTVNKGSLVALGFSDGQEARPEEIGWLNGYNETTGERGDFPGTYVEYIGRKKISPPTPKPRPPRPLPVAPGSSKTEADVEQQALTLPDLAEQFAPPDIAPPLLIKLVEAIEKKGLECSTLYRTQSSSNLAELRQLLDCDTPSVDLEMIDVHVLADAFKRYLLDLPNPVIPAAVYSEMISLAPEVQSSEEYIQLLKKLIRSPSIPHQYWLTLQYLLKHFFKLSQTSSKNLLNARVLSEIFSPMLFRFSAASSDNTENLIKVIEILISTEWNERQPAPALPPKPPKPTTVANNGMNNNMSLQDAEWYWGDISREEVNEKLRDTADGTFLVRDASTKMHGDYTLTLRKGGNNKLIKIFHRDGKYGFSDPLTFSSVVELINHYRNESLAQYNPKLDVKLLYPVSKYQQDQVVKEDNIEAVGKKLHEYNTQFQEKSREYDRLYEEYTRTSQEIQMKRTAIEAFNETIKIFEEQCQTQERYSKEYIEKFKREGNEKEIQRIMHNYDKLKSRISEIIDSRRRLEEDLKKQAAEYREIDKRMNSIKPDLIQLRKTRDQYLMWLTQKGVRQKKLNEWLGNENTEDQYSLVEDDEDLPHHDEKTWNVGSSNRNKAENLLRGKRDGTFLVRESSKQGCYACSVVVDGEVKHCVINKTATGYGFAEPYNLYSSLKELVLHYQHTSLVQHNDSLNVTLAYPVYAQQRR

`Cc1nc2ccc(NC(=O)NC3CCCC3)nc2cc1-c1cnn(C)c1` [Compound 0236]: the IC50 in assay [1] (setting [3]) was above 10000 nM; in assay [2] (setting [4]), 100 to 1000 nM.
Turning to `O=C(NCc1ccncc1)Nc1ccc2ncc(-c3cn[nH]c3)cc2n1` [Compound 0103], the IC50 in assay [1] (setting [3]) and in assay [2] (setting [4]) was 100 to 1000 nM each time.
Take `O=C(Nc1ccc2ncc(Nc3cnccn3)cc2n1)NC1CCCC1` [Compound 0140]: the IC50 in assay [1] (setting [3]) is 100 to 1000 nM; in assay [2] (setting [4]), below 100 nM.
As for `O=C(NCCCCC1OCCO1)Nc1ccc2ncc(-c3cn[nH]c3)cc2n1` [Compound 0174], the IC50 in assay [1] (setting [3]) and in assay [2] (setting [4]) was below 100 nM in each case.
With `COc1cc(Nc2cnc3ccc(NC(=O)NC4CCCC4)nc3c2)cc(OC)c1` [Compound 0031], the IC50 in assay [1] (setting [3]) was 1000 to 10000 nM; in assay [2] (setting [4]) it was below 100 nM.
On the same counts, the results for `O=C(Nc1ccc2ncc(-c3ccc(O)cc3)cc2n1)NC1CCCC1` [Compound 0034] are below 100 nM and below 100 nM.
Take `O=C(Nc1ccc2ncc(Nc3cn[nH]c3)cc2n1)NC1CCCC1` [Compound 0125]: the IC50 in assay [1] (read-out: ERK2, IC50) was 324 nM; in assay [1] (setting [3]), 100 to 1000 nM; in assay [2] (read-out: PI3Kα, IC50), below 3 nM; in assay [2] (setting [4]) it was below 100 nM.
As for `O=C(Nc1ccc2ncc(-c3cccc(O)c3)cc2n1)NC1CCCC1` [Compound 0033], the IC50 was below 100 nM in assay [1] (setting [3]) and 100 to 1000 nM in assay [2] (setting [4]).
For `O=C(NCCCCc1ccccc1F)Nc1ccc2ncc(-c3cnn(CCCN4CCOCC4)c3)cc2n1` [Compound 0183] the same measures were below 100 nM and below 100 nM.
On the same counts, the results for `O=C(Nc1ccc2ncc(-c3ccnc(F)c3)cc2n1)NC1CCCC1` [Compound 0039] are below 100 nM and 100 to 1000 nM.
For `O=C(Nc1ccc2ncc(-c3ccccc3CO)cc2n1)NC1CCCC1` [Compound 0040] the same measures were 100 to 1000 nM and 1000 to 10000 nM.
As to `O=C(Nc1ccc2ncc(-c3cnn(CC4CNC4)c3)cc2n1)NC1CCCC1` [Compound 0146], the IC50 in assay [1] (setting [3]) and in assay [2] (setting [4]) was below 100 nM throughout.
On to `C#Cc1cnc2ccc(NC(=O)NC3CCCC3)nc2c1` [Compound 0017], for which the IC50 in assay [1] (setting [3]) lay within 1000 to 10000 nM; in assay [2] (setting [4]) it was 100 to 1000 nM.
On the same counts, the results for `O=C(NCC1CCOCC1)Nc1ccc2ncc(-c3cn[nH]c3)cc2n1` [Compound 0191] are below 100 nM and 100 to 1000 nM.
On the same counts, the results for `Cn1cncc1-c1cnc2ccc(NC(=O)NC3CCCC3)nc2c1` [Compound 0238] are below 100 nM and 100 to 1000 nM.
For `O=C(Nc1ccc2ncc(-c3cn[nH]c3)cc2n1)N[C@H]1CCc2ccccc21` [Compound 0077] the same measures were below 100 nM and 100 to 1000 nM.
With `CN(C)CCCn1cc(-c2cnc3ccc(NC(=O)NC4(C)CCCC4)nc3c2)cn1` [Compound 0258], the IC50 is 100 to 1000 nM in assay [1] (setting [3]) and below 100 nM in assay [2] (setting [4]).
In the case of `CN(C)CCn1cc(-c2cnc3ccc(NC(=S)N[C@@H]4C[C@H]5CC[C@@H]4C5)nc3c2)cn1` [Compound 0213], the figures for the IC50 in assay [1] (setting [3]) and in assay [2] (setting [4]) were below 100 nM and 100 to 1000 nM, respectively.
For `C=CCNC(=O)Nc1ccc2ncc(-c3cn[nH]c3)cc2n1` [Compound 0056] the same measures were below 100 nM and 100 to 1000 nM.
On the same counts, the results for `CN(C)CCCn1cc(-c2cnc3ccc(NC(=O)NC4CCCC4)nc3c2)cn1` [Compound 0210] are 100 to 1000 nM and below 100 nM.
For `CCOC(=O)c1nn(C)cc1-c1cnc2ccc(NC(=O)NC3CCCC3)nc2c1` [Compound 0215] the same measures were 100 to 1000 nM and below 100 nM.
As to `CN(C)CCNC(=O)C1CCN(c2cnc3ccc(NC(=O)NC4CCCC4)nc3c2)CC1` [Compound 0150], the results for the IC50 in assay [1] (setting [3]) and in assay [2] (setting [4]) were 1000 to 10000 nM and 100 to 1000 nM, respectively.
For `O=C(Nc1ccc2ncc(C3=CCOCC3)cc2n1)NC1CCCC1` [Compound 0205] the same measures were below 100 nM and below 100 nM.
On the same counts, the results for `O=C(Nc1ccc2ncc(N3CCN(c4ccccc4)CC3)cc2n1)NC1CCCC1` [Compound 0153] are above 10000 nM and 100 to 1000 nM.
For `O=C(NCC1CC1)Nc1ccc2ncc(-c3cn[nH]c3)cc2n1` [Compound 0186] the same measures were below 100 nM and 100 to 1000 nM.
In the case of `COC(=O)C#Cc1cnc2ccc(NC(=O)NC3CCCC3)nc2c1` [Compound 0127], the IC50 in assay [1] (setting [3]) was 1000 to 10000 nM; in assay [2] (setting [4]) it was 100 to 1000 nM.
For `CN(C)CCn1cc(-c2cnc3ccc(NC(=S)NC4CCCC4)nc3c2)cn1` [Compound 0209] the same measures were below 100 nM and below 100 nM.
On the same counts, the results for `CN(C)CCNc1cnc2ccc(NC(=O)NC3CCCC3)nc2c1` [Compound 0011] are 1000 to 10000 nM and 100 to 1000 nM.
As for `O=C(NCCCCc1ccccc1)Nc1ccc2ncc(-c3cn[nH]c3)cc2n1` [Compound 0064], the IC50 in assay [1] (read-out: ERK2, IC50) was below 3 nM; in assay [1] (setting [3]) it was below 100 nM; in assay [2] (read-out: PI3Kα, IC50), 50 nM; in assay [2] (setting [4]) it was below 100 nM.
Take `S=C(Nc1ccc2ncc(-c3cnn(CCN4CCNCC4)c3)cc2n1)NC1CCCC1` [Compound 0222]: the IC50 in assay [1] (setting [3]) and in assay [2] (setting [4]) was below 100 nM throughout.
In the case of `O=C(NCCCCN1CCCC1)Nc1ccc2ncc(-c3cn[nH]c3)cc2n1` [Compound 0177], the IC50 in assay [1] (setting [3]) is 100 to 1000 nM; in assay [2] (setting [4]), above 10000 nM.
With `O=C(Nc1ccc2ncc(-c3cn[nH]c3)cc2n1)N[C@@H]1CCNC1` [Compound 0073], the IC50 is below 100 nM in assay [1] (setting [3]) and 1000 to 10000 nM in assay [2] (setting [4]).
For `COc1ccc(C(=O)Nc2cnc3ccc(NC(=O)NC4CCCC4)nc3c2)cc1` [Compound 0135] the same measures were above 10000 nM and below 100 nM.
On the same counts, the results for `O=C(NCCC(F)(F)F)Nc1ccc2ncc(-c3cn[nH]c3)cc2n1` [Compound 0115] are below 100 nM and below 100 nM.
For `O=C(Nc1ccc2ncc(-c3cn[nH]c3)cc2n1)NC1CCCCCC1` [Compound 0058] the same measures were below 100 nM and below 100 nM.
Regarding `COCCNc1cnc2ccc(NC(=O)NC3CCCC3)nc2c1` [Compound 0010], the IC50 was 1000 to 10000 nM in assay [1] (setting [3]) and below 100 nM in assay [2] (setting [4]).
For `CC(C)(C)OC(=O)C1CCN(c2cnc3ccc(NC(=O)NC4CCCC4)nc3c2)CC1` [Compound 0149] the same measures were 1000 to 10000 nM and 100 to 1000 nM.
For `CN1CC(n2cc(-c3cnc4ccc(NC(=O)NC5CCCC5)nc4c3)cn2)C1` [Compound 0145] the same measures were 100 to 1000 nM and below 100 nM.
On the same counts, the results for `O=C(Nc1ccc2ncc(-c3cn[nH]c3)cc2n1)NC1CC1` [Compound 0067] are below 100 nM and 100 to 1000 nM.
As for `O=C(NCCCCc1cccc(Cl)c1)Nc1ccc2ncc(-c3cn[nH]c3)cc2n1` [Compound 0166], the IC50 in assay [1] (setting [3]) is below 100 nM; in assay [2] (setting [4]), 100 to 1000 nM.
Regarding `O=C(NCC1CCC(F)(F)CC1)Nc1ccc2ncc(-c3cn[nH]c3)cc2n1` [Compound 0113], the results for the IC50 in assay [1] (setting [3]) and in assay [2] (setting [4]) were below 100 nM and 100 to 1000 nM, respectively.
On the same counts, the results for `O=C(Nc1ccc2ncc(-c3cn[nH]c3)cc2n1)NC1CCC(Oc2ccccc2)C1` (stereo not shown) [Compound 0092] are below 100 nM and below 100 nM.
On the same counts, the results for `O=C(Nc1ccc2ncc(-c3cnn(C4CCNC4)c3)cc2n1)NC1CCCC1` (stereo not shown) [Compound 0144] are 100 to 1000 nM and below 100 nM.
On the same counts, the results for `O=C(NC[C@@H]1CCCO1)Nc1ccc2ncc(-c3cn[nH]c3)cc2n1` [Compound 0193] are below 100 nM and 100 to 1000 nM.
In the case of `CC(C)NC(=O)Nc1ccc2ncc(-c3cn[nH]c3)cc2n1` [Compound 0053], the IC50 in assay [1] (setting [3]) and in assay [2] (setting [4]) was below 100 nM throughout.
As for `O=C(Nc1ccc2ncc(-c3cnn(CCCN4CCOCC4)c3)cc2n1)N[C@@H]1CCN(Cc2ccccc2)C1` [Compound 0175], the IC50 in assay [1] (setting [3]) was below 100 nM; in assay [2] (setting [4]) it was 100 to 1000 nM.
On the same counts, the results for `CO[C@H]1CCC[C@@H]1NC(=O)Nc1ccc2ncc(-c3cn[nH]c3)cc2n1` [Compound 0194] are below 100 nM and 100 to 1000 nM.
On the same counts, the results for `O=C(Nc1ccc2ncccc2n1)NC1CCCC1` [Compound 0116] are 1000 to 10000 nM and 100 to 1000 nM.
For `O=C(Nc1ccc2ncc(-c3ccsc3)cc2n1)NC1CCCC1` [Compound 0118] the same measures were below 100 nM and 100 to 1000 nM.
Regarding `CN1CCN(c2cnc3ccc(NC(=O)NC4CCCC4)nc3c2)CC1` [Compound 0027], the IC50 in assay [1] (setting [3]) and in assay [2] (setting [4]) was 100 to 1000 nM in each case.
Take `O=C(Nc1ccc2ncc(N3CC(OCCCN4CCOCC4)C3)cc2n1)NC1CCCC1` [Compound 0240]: the IC50 is 100 to 1000 nM in assay [1] (setting [3]) and below 100 nM in assay [2] (setting [4]).
On the same counts, the results for `O=C(Nc1ccc2ncc(-c3cnn(C4CCNCC4)c3)cc2n1)NC1CCCC1` [Compound 0214] are 100 to 1000 nM and below 100 nM.
For `O=C(Nc1ccc2ncc(-c3ccccc3)cc2n1)NC1CCCC1` [Compound 0006] the same measures were 100 to 1000 nM and 100 to 1000 nM.
On the same counts, the results for `CC1(NC(=O)Nc2ccc3ncc(-c4cnn(CCCN5CCNCC5)c4)cc3n2)CCCC1` [Compound 0256] are 100 to 1000 nM and below 100 nM.
